Converted amounts (≈) assume the structure as drawn. Residues, ends and D or L forms follow the SMILES beside them.

These results are taken from PMC13185819, “De Novo Multi‐Mechanism Antimicrobial Peptide Design via Multimodal Deep Learning” (Advanced Science, 2026).

For data set [1], the system named is 25 strains of ESKAPE MDROs. Format: cell-based. Particulars: lowest value over gram-negative strains. The method, boiled down: (§1)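 Broth microdilution per CLSI, with the 1 × 10^6 CFU/mL bacterial suspension mixed 1:1 with twofold peptide dilutions in Mueller–Hinton Broth. Three independent replicates.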
The subject of data set [2] is intact or abraded skin of mice. As to the kind of experiment: Mouse skin tolerance test. Format: in vivo, C57BL/6J mice. Particulars: for skin irritation or pathology at 72 h post-treatment: shaved intact and abraded skin, 10 µL of 150 mg/mL. The procedure: For the skin local safety study, the intact or abraded skin of the mice was treated once with antimicrobial peptides QLX‐3DV‐1, QLX‐3DV‐2, or water. In brief, ten‐week‐old female C57BL/6J mice (n = 8 for each group) were anesthetized using isoflurane and administered buprenorphine as an analgesic at 0.1 mg/kg intraperitoneally. After removing the back hair of the mice, the skin on the back of the mice in the scratch group was sanded with 60‐grit sandpaper until the skin oozed blood. The intact skin group received no additional treatment except shaving. 10 µL QLX‐3DV‐1 and QLX‐3DV‐2 (150 mg/mL) or water was applied uniformly over the intact or abraded skin to assess the acute dermal toxicity. Groups without any addition served as untreated controls. Weight changes were recorded over 72 h. Histopathological characteristics of treated skin detected by H&E staining on the third day.

The test system of data set [3] is mice. As to the kind of experiment: Systemic safety, intraperitoneal injection. Particulars: for survival rate over 96 h: intraperitoneal injection, 60 mg/kg, n = 8; for hepatorenal toxicity (H&E of liver and kidney): intraperitoneal, 40 mg/kg, 12 h. Format: in vivo, C57BL/6J mice. The procedure:
The 10‐week‐old female C57BL/6J mice were randomly divided into three groups (n = 8 for each group). […] Mouse survival was monitored for 96 h. For pathologic analysis, mouse liver and kidneys were obtained by surgery for hematoxylin‐eosin (HE) staining after treatment with 40 mg/kg QLX‐3DV‐1 and QLX‐3DV‐2 for 12 h.

Data set [4] relates to E. faecium 1042. Format: cell-based. In outline: as §1
The subject of data set [5] is E. faecium 21. Format: cell-based. The method, boiled down: as §1
The test system of data set [6] is E.coli 110. In kind it is cell-based. The method, boiled down: as §1
Data set [7] deals with E.coli 208. Format: cell-based. The method, boiled down:
as §1

Data set [8] has as its system E.coli CMCC44102. In kind it is cell-based. In outline:
as §1

In data set [9] the test system is K. pneumoniae 7713. Format: cell-based. The method, boiled down: as §1
Data set [10] deals with S. aureus ATCC33592. Format: cell-based. In outline:
as §1

Data set [11] relates to S. aureus CICC25138. In kind it is cell-based. The method, boiled down: as §1
Data set [12] concerns S. aureus CMCC26003. Format: cell-based. The method, boiled down: as §1
For data set [13], the system named is human red blood cells (hRBCs). Kind of data set: Hemolysis assay. Particulars: human red blood cells 8% (v/v) in PBS pH 7.4, 1 h, 37°C, absorbance 570 nm; linear interpolation. Format: cell-based. The procedure:
Human red blood cells (hRBCs) were purchased from Xiamen Immocell Biotechnology Co., Ltd. For the hemolysis test, fresh human red blood cells (hRBCs) were washed three times with PBS (35 mM phosphate buffer, 0.15 M NaCl, pH 7.4) by centrifugation for 5 min at 1000 × g and resuspended in PBS. Then, 50 µL peptide solutions (serial twofold dilutions in PBS) were added to 100 µL of hRBC suspension [8% (v/v) in final] in PBS and incubated for 1 h at 37°C. Samples were centrifuged at 1000 × g for 5 min, and hemoglobin release was monitored by measuring the supernatant absorbance at 570 nm in a flat‐bottom 96‐well plate (Servicebio). hRBCs in PBS or 0.1% Triton X‐100 were used as the negative and positive controls, respectively.

As for `CC[C@H](C)[C@H](NC(=O)[C@H](CCCCN)NC(=O)[C@H](Cc1c[nH]c2ccccc12)NC(=O)[C@@H](N)CCCCN)C(=O)N[C@@H](CCCCN)C(=O)N[C@@H](Cc1c[nH]c2ccccc12)C(=O)N1CCC[C@H]1C(=O)N[C@@H](CO)C(=O)N[C@@H](CCCNC(=N)N)C(=O)N[C@@H](Cc1c[nH]c2ccccc12)C(=O)N[C@@H](Cc1ccccc1)C(=O)N[C@@H](CCCNC(=N)N)C(=O)N[C@@H](CCCCN)C(=O)N[C@@H](CC(C)C)C(N)=O` [QLX-3DV-1] (H-KWKIKWPSRWFRKL-NH2), the “MIC against gram-negative strains, as low as” value in [1] came to 4 µg/mL (≈ 2.04 µM). In data set [2] (mouse, in vivo), the “Gross pathology findings (Number of mice)” value was 0 / 8; the “Histopathological findings, Fibrosis in the dermis (Number of mice)” value is given as 0 / 8; the “Histopathological findings, Lymphohistiocytic infiltration in the dermis (Number of mice)” value is on record as 0 / 8; the “Skin irritation, Erythema formation (Number of mice)” value was 0 / 8. In data set [2], the “skin irritation or pathology at 72 h post-treatment” value is on record as “no signs of skin irritation or pathology”. In [3], the “survival rate over 96 h” value is 100%; the “hepatorenal toxicity (H&E of liver and kidney)” value is given as “no significant hepatorenal toxicity”.

Consider `CC[C@H](C)[C@H](NC(=O)[C@H](CCCCN)NC(=O)[C@H](Cc1c[nH]c2ccccc12)NC(=O)[C@@H](N)CCCCN)C(=O)N[C@@H](CCCCN)C(=O)N[C@@H](Cc1c[nH]c2ccccc12)C(=O)N1CCC[C@H]1C(=O)N[C@H](C(=O)N[C@@H](CCCNC(=N)N)C(=O)N[C@@H](Cc1c[nH]c2ccccc12)C(=O)N[C@@H](Cc1ccccc1)C(=O)N[C@@H](CCCNC(=N)N)C(=O)N[C@@H](CCCCN)C(=O)N[C@@H](CC(C)C)C(N)=O)C(C)C` [QLX-3DV-2] (H-KWKIKWPVRWFRKL-NH2), for which the “MIC against gram-negative strains, as low as” value in [1] was 4 µg/mL (≈ 2.03 µM). In data set [2] (mouse, in vivo), the “Gross pathology findings (Number of mice)” value was 0 / 8; the “Histopathological findings, Fibrosis in the dermis (Number of mice)” value is listed as 0 / 8; the “Histopathological findings, Lymphohistiocytic infiltration in the dermis (Number of mice)” value is 0 / 8; the “Skin irritation, Edema formation (Number of mice)” value is on record as 0 / 8. The “Skin irritation, Erythema formation (Number of mice)” value in data set [2] (mouse, in vivo) is recorded as 0 / 8. Also, the “skin irritation or pathology at 72 h post-treatment” value in [2] is “no signs of skin irritation or pathology”. For the same compound, the “hepatorenal toxicity (H&E of liver and kidney)” value in [3] is “no significant hepatorenal toxicity”.

As to `CC[C@H](C)[C@H](NC(=O)[C@H](CCSC)NC(=O)[C@H](Cc1c[nH]c2ccccc12)NC(=O)[C@@H](N)CCCCN)C(=O)N[C@@H](CCCCN)C(=O)N[C@@H](Cc1c[nH]c2ccccc12)C(=O)N1CCC[C@H]1C(=O)N[C@@H](CO)C(=O)N[C@@H](CC(N)=O)C(=O)N[C@@H](Cc1c[nH]c2ccccc12)C(=O)N[C@@H](Cc1ccccc1)C(=O)N[C@H](C(=O)N[C@@H](CCSC)C(=O)N[C@@H](CC(C)C)C(N)=O)[C@@H](C)O` [QLX-227-1] (H-KWMIKWPSNWFTML-NH2), the “MIC (μg/mL) E. faecium 1042” value in data set [4] was 32 µg/mL (≈ 17.1 µM). In addition, the “MIC (μg/mL) E. faecium 21” value in data set [5] was found to be 16 µg/mL (≈ 8.57 µM). Also, in data set [6], the “MIC (μg/mL) E.coli 110” value was 32 µg/mL (≈ 17.1 µM). The “MIC (μg/mL) E.coli 208” value in data set [7] was 16 µg/mL (≈ 8.57 µM). Also, the “MIC (μg/mL) E.coli CMCC44102” value in [8] is 32 µg/mL (≈ 17.1 µM). The “MIC (μg/mL) K. pneumoniae 7713” value in data set [9] worked out at 64 µg/mL (≈ 34.3 µM). Moreover, the “MIC (μg/mL) S. aureus ATCC33592” value in data set [10] is 64 µg/mL (≈ 34.3 µM). In addition, in data set [11], the “MIC (μg/mL) S. aureus CICC25138” value is 64 µg/mL (≈ 34.3 µM). Moreover, in [12], the “MIC (μg/mL) S. aureus CMCC26003” value was 32 µg/mL (≈ 17.1 µM). Also, in data set [13], the “25% hemolytic concentration (HC25)” value is listed as 100.92 µg/mL.

Consider `CC(=O)N[C@@H](CC(C)C)C(=O)N[C@@H](CCCCN)C(=O)N[C@@H](CCCNC(=N)N)C(=O)N[C@H](C(=O)N[C@@H](Cc1c[nH]c2ccccc12)C(=O)N[C@@H](CCCCN)C(=O)N[C@@H](CCCNC(=N)N)C(=O)N[C@H](C(=O)N[C@@H](Cc1ccccc1)C(=O)N[C@@H](CCCCN)C(=O)N[C@@H](CC(C)C)C(=O)N[C@@H](CC(C)C)C(=O)N[C@@H](CCCCN)C(=O)N[C@@H](CCCNC(=N)N)C(=O)N[C@@H](Cc1ccc(O)cc1)C(=O)N[C@@H](Cc1c[nH]c2ccccc12)C(=O)N[C@@H](CCCNC(=N)N)C(=O)N[C@@H](CCC(N)=O)C(=O)N[C@@H](CC(C)C)C(=O)N[C@@H](CCCCN)C(=O)N[C@@H](CCCCN)C(=O)N1CCC[C@H]1C(=O)N[C@H](C(=O)N[C@@H](CCCNC(=N)N)C(N)=O)C(C)C)C(C)C)C(C)C` [SAAP-148, reference compound] (Ac-LKRVWKRVFKLLKRYWRQLKKPVR-NH2), for which the “25% hemolytic concentration (HC25)” value in [13] is on record as 26.89 µg/mL. In addition, the “survival rate over 96 h” value in [3] was found to be 50%.
